# Measurements reported in patent US10253002B2, “Compounds and methods of treating infections” (Neoculi Pty Ltd., priority 2013, dated 2019).
# Assays:
# Streptococcus pneumoniae = conditions: control strain Streptococcus pneumoniae ATCC 49619; cited from earlier work
# [1] = test system: lipid synthesis in S. aureus ATCC 29213; assay: Macromolecular synthesis assay: lipid synthesis ([3H] glycerol); type: cell-based, Staphylococcus aureus; conditions: at the MIC
# Procedure: (§1) Cells were grown at 35° C. overnight on Trypticase Soy agar. A colony from the plate was used to inoculate 10 ml of Mueller Hinton broth II (MHBII), and the culture was grown to early exponential growth phase (OD600==0.2 to 0.3) while incubating in a shaker at 35° C. and 200 rpm.
# Bacterial cells were grown to early exponential growth phase in MHBII broth and added to 1.5 mL eppendorf tubes (in triplicate) containing various concentrations of test compound or control antibiotics as described above. Following a 5 min incubation at room temperature, [^3H] glycerol was added at 0.5 μCi per reaction.
# Reactions were allowed to proceed at room temperature for 15 min and then stopped through the addition of 375 μL chloroform/methanol (1:2) followed by vortexing for 20 seconds after each addition. Chloroform (125 μL) was then added to each reaction, vortexed, followed by the addition of 125 μL dH2O and vortexing. Reactions were centrifuged at 13,000 rpm for 10 min, and then 150 μL of the organic phase was transferred to a scintillation vial and allowed to dry in a fume hood for at least 1 hr. Samples were then counted via liquid scintillation counting.
# [2] = test system: cell wall synthesis in S. aureus ATCC 29213; assay: Macromolecular synthesis assay: cell wall synthesis ([14C]N-acetylglucosamine); type: cell-based, Staphylococcus aureus
# Procedure: as §1
# Bacterial cells in early exponential growth phase were transferred to M9 minimal medium and added to 1.5 mL eppendorf tubes (100 μL/tube) containing various concentrations of test compound or control antibiotics (5 μL) at 20× the final concentration in 100% DMSO as described above. Following a 5 min incubation at 37° C., [^14C]N-acetylglucosamine (0.4 μCi/reaction) was added to each tube and incubated for 45 min in a 37° C. heating block. Reactions were stopped through the addition of 100 μL of 8% SDS to each tube. Reactions were then heated at 95° C. for 30 min in a heating block, cooled, briefly centrifuged, and spotted onto pre-wet HA filters ([…]). After washing three times with 5 mL of 0.1% SDS, the filters were rinsed two times with 5 ml of deionized water, allowed to dry, and then counted using a Beckman LS3801 liquid scintillation counter.
# [3] = test system: protein synthesis in S. aureus ATCC 29213; assay: Macromolecular synthesis assay: protein synthesis ([3H] leucine); type: cell-based, Staphylococcus aureus; conditions: at the MIC
# Procedure: as §1
# When cells reached early exponential phase, 100 μL of culture was added to triplicate wells containing various concentrations of test compound or control antibiotics (5 μL) at 20× the final concentration in 100% DMSO. A 5% DMSO treated culture served as the “no drug” control for all experiments. Cells were added in MHBII at 105% to account for the volume of drug added to each reaction or in M9 minimal medium for protein synthesis reactions. Following 15 min incubation at room temperature, either [^3H] thymidine (DNA synthesis), [^3H] uridine (RNA synthesis) or [^3H] leucine (protein synthesis) was added at 0.5-1.0 μCi per reaction, depending on the experiment. Reactions were allowed to proceed at room temperature for 15-30 min and then stopped by adding 12 μL of cold 5% trichloroacetic acid (TCA) or 5% TCA/2% casamino acids (protein synthesis only). […] After washing three times with 5 ml of cold 5% TCA, the filters were rinsed two times with 5 mL 100% ethanol, allowed to dry, and then counted using a Beckman LS3801 liquid scintillation counter.
# [4] = Bioassay ranking of the analogues tested; conditions: M + R (MRSA and VRE combined)
# S. aureus KC01 = assay: Kill kinetics assay, Example 8; type: cell-based, Staphylococcus aureus
# Procedure: S. aureus KC01 and E. faecalis USA01, not determined to be MRSA or VRE, respectively, were grown overnight on Columbia SBA at 37° C. A few colonies of bacteria were then suspended in CAMHB (cation-adjusted Mueller Hinton broth) and adjusted to OD600 of 0.08 to 0.10. The bacterial suspension was diluted 1:10. […] The tubes were incubated at 37° C., with constant shaking. In order to determine the number of viable bacteria present at various time points, a 100 μL aliquot was removed from each tube and diluted. Then, 100 μL of each dilution were spread onto colony count agar, in duplicate, and incubated for 48 h at 37° C. After 24 h the numbers of colonies present on each plate were counted and therefore the number of viable bacteria present in the original suspension enumerated. Plates were re-checked after 48 hours.
SMILES,Acceptable MIC range for Ampicillin (Streptococcus pneumoniae) [µg/mL],inhibition of lipid synthesis [1],inhibition of cell wall synthesis ([2]; 4 fold the MIC),inhibition of cell wall synthesis ([2]; 8 fold the MIC) [%],inhibition of protein synthesis [3],M + R [4] [µg/mL],reduction in bacterial numbers from initial numbers (S. aureus KC01; 2 h) [log10],reduction in comparison to the control at the same time point (S. aureus KC01; 2 h) [log10],reduction in bacterial numbers (S. aureus KC01; 6 h incubation) [log10],numbers of bacteria versus control (S. aureus KC01; after 24 h)
CC1(C)S[C@@H]2[C@H](NC(=O)[C@H](N)c3ccccc3)C(=O)N2[C@H]1C(=O)O [Ampicillin],0.06 to 0.25,–,–,–,–,–,–,–,–,–
"N=C(N/N=C/c1ccc(Cl)cc1)N/N=C/c1ccc(Cl)cc1 [NCL812, 1,3-bis[(E)-(4-chlorophenyl)methyleneamino]guanidine]",–,approximately 90%,approximately 68%,~52,up to 97%,2.375,≥ 2.5,> 3,≥ 2,not significantly different to the control
